# Test results reported in patent US6583333B1, “Lymphoma-susceptible transgenic mice and methods for studying drug sensitivity of lymphomas” (Cold Spring Harbor Laboratory, priority 1998, dated 2003).
# How the values were obtained:
# [1] = test system: Eμ-myc lymphoma cell line L1025; test: In vitro sensitivity of lymphoma cell lines, viability by trypan blue exclusion; assay type: cell-based, mouse; details: line L1025 from a resistant tumor, 24-hour treatment, FIG. 8
# Experimental: Several lymphoma lines have been isolated from Eμ-myc mice in which the response to adriamycin of the original tumor was known. Eμ-myc lymphoma cell lines cultured in vitro were tested for their sensitivity to adriamycin. Lymphocytes were counted. The cells were spun down and resuspended in pre-conditioned B cell media (media that has been on feeder cells for 24 hours) at a concentration of 2×10^6 cells/ml. 10^6 cells were seeded per well of a tissue culture plate, in 0.5 ml. Adriamycin was suspended in pre-conditioned B cell media at twice the final concentration. Final concentrations of adriamycin were 0.25, 0.05, 0.075, 0.1, 0.5 and 1.0 μg/ml. 0.5 of medium was added to each well, to a final volume of 1 ml. Cells were incubated for 24 hours at 37° C. Cells were transferred from the wells to Eppendorf tubes on ice, and centrifuged at 2500 rpm for 5 minutes at 4° C. The medium was poured off the cell pellets, leaving about 200 μl of medium in each tube. One drop of trypan blue dye was added to each tube, and a total of 200 cells per sample were counted under a microscope. Live cells exclude trypan blue and appear white; dead cells take up trypan blue and appear blue.
# L877 has been tested as Eμ-myc/p53^−/−; the other cell lines are derived from Eμ-myc/p53^+ mice and are presumably p53^+/+.
# [2] = test system: Eμ-myc lymphomas from p53^+/− mice; test: Effect of p53 defect on therapy in Eμ-myc/p53^+/− mice; assay type: in vivo, mouse; details: 10 Eμ-myc/p53^+/− mice, 10 mg/kg, FIG. 14
# Experimental: Since most Eμ-myc lymphomas from p53^+/− mice lose the wild-type p53 allele, it was possible to study the response of essentially p53-deficient tumors in mice that were otherwise hemizygous for p53 and not prone to thymic lymphoma (see strategy in FIG. 13). […] The response of Eμ-myc lymphomas with p53 defects to 10 mg/kg adriamycin therapy resembled that of Eμ-myc/p53^+/+ lymphomas following their second relapse (See FIG. 4).
# [3] = test system: transplanted Eμ-myc lymphoma cells in C57BL/6 mice; test: Tumor transplantation into syngeneic mice, response to treatment by palpation; assay type: in vivo, mouse; details: 10^6 cells by tail vein into C57BL/6, 10 mg/kg, compared with primary tumors, FIG. 5
# Text: Upon discovery of tumors in a Eμ-myc transgenic mouse, lymphoma cells were harvested, and 10^6 cells were immediately transplanted into multiple C57BL/6 mice (Taconic Laboratories) by tail vein injection. Tumors were allowed to form (usually in about two weeks). Treatment with adriamycin was given as in Example 5. […] The results (as assessed by palpation for tumors) plotted in FIG. 5 are from 22 mice with primary tumors, and 10 mice with transplanted tumors.
# [4] = test system: secondary tumors arising from transplanted L885 cells; test: Drug sensitivity of transplanted tumor cell line L885, by palpation; assay type: in vivo, mouse; details: 10 mg/kg, 9 secondary tumors vs 22 primary tumors, FIG. 11
# Experimental: (§1) Eμ-myc lymphomas were cultured using feeder layers (see Example 7). Several of these cell lines were transplanted into syngeneic C57BL/6 recipients by injection of 10^6 cells into the tail vein. Tumor-bearing animals were assessed for response to 10 mg/kg adriamycin therapy, by palpation for tumors.
# [5] = test system: Eμ-myc/p53^−/− lymphoma; test: White blood cell counts of lymphoma-associated leukemia after treatment; assay type: in vivo; details: Eμ-myc/p53^−/− mouse, 10 mg/kg, 0-24 hours after treatment, FIG. 6, one mouse
# Experimental: Eμ-myc/p53^+ mice (C57BL/6) and Eμ-myc/p53^−/− (C57BL/6 x 129; p53^−/LOH in FIGS. 6 and 7) with leukemia associated with primary lymphoma, were treated with either adriamycin at 10 mg/kg of body weight or with 6 Gy of whole body gamma-irradiation. Blood samples were taken and white blood cells were counted in a hemocytometer at 0, 4, 8, 12 and 24 hours after treatment. […] The data plotted in FIGS. 6 and 7 are from one treated mouse of each genotype.
# [6] = test system: transplanted L1537 cells (homozygous for p53^−); test: Drug sensitivity of transplanted tumor cell line L1537; assay type: in vivo, mouse; details: two C57BL/6 mice, 10 mg/kg
# Experimental: as §1
# Tumor cell line L1537 was derived from an Eμ-myc/p53^+/− lymphoma and was tested as homozygous for p53^−. Tumor cells were transplanted, by the method described above, into two C57BL/6 mice.
# [7] = test system: primary myc-induced lymphomas in Eμ-myc transgenic mice; test: Response to therapy of primary myc-induced lymphomas (remission/relapse by palpation and blood smears); assay type: in vivo, mouse; details: single treatment 10 mg/kg intraperitoneal, FIG. 4
# Experimental: Eμ-myc transgenic mice were treated with 10 mg/kg body weight adriamycin (maximum tolerated dose) by intraperitoneal injection using adriamycin freshly resuspended in water to a final concentration of 1 mg/ml. Treated mice were monitored for remission and for relapse by palpation and by blood smears to obtain white blood cell counts.
# Palpation is performed by gently feeling the mouse for bumps under the skin, which are enlarged lymph nodes.
# Blood smears are done by collecting blood from the tail artery, and examining a dried droplet of blood which has been smeared on a glass microscope slide to be one cell layer thick at the edge. The blood smear is stained after drying, using LEUKOSTAT™ stain (Fisher Diagnostics cat. # CS43A-C). The blood smear can be mounted with Permount™ histological mounting medium (Fisher Scientific). Slides are viewed under 40X or oil emersion. Blood from mice affected by lymphoma are always compared with blood from mice from a normal mouse drawn at the same time.
# The numbers of mice used to generate the data in FIG. 4 were 22 (first treatment), 14 (second treatment) and 5 (third treatment).
# [8] = test system: L700 cell line derived from an Eμ-myc (p53^+) tumor; test: Detection of caspase activation (biotin-YVAD-amk labelling, blot); assay type: cell-based, mouse; details: 0.1 μg/ml, 0, 3, 6 or 9 hours, FIG. 10
# Experimental: Procedures were as published in Faleiro, L., et al., EMBO J. 16:2271-2281, 1997). Isolated L700 cells growing in culture dishes were treated with 0.1 μg/ml adriamycin. After 0, 3, 6 or 9 hours, cell lysates were made in the presence of 10 μM biotin-YVAD-amk to label caspases, and the protein concentrations were determined. Protein samples were run on a 15% acrylamide-0.1% SDS gel. Proteins were transferred from the gel to Immobilon P membrane (Millipore). Membranes were washed in methanol and air dried. Dried, baked membranes were incubated in biotinylated horseradish peroxidase at 25 ng/ml. Labeled proteins were visualized with ECL reagent (Amersham).
smiles,measurement,setting,value
COc1cccc2c1C(=O)c1c(O)c3c(c(O)c1C2=O)C[C@@](O)(C(=O)CO)C[C@@H]3O[C@H]1C[C@H](N)[C@H](O)[C@H](C)O1 [adriamycin],sensitivity in cell culture (percent viable cells),[1],sensitive in cell culture
same,response to therapy (percentage of tumor-free mice),[2],almost completely refractory to therapy
same,response of transplanted (secondary) tumors to treatment,[3],A higher percentage of these secondary tumors failed to respond to treatment
same,response of transplanted L885 tumors to therapy,[4],"virtually indistinguishable from that seen in the primary, non-transplanted lymphomas"
same,sensitivity of lymphoma-associated leukemia (white blood cell counts),[5],insensitive
same,response of transplanted L1537 tumors to therapy,[6],Both mice failed to respond
same,response to therapy (time to relapse by palpation),[7],the vast majority of the mice respond to therapy
same,caspase activation,[8],caspase activation following drug treatment
